Assay results from PubChem BioAssay AID330 (DTP/NCI, 2004).
Values joined by “and” are separate entries in the source; they are usually repeats but may differ in a detail not shown here. Equal values may be shown once. Toxic doses and inconclusive results are not listed. The calls were made as follows: active = survival T/C of 150% or more; inactive = T/C below 125% in these data.

Test system: P388 leukemia ip, CD2F1 mice, survival T/C
Experiment: NCI In Vivo Anticancer Drug Screen. Data for tumor model P388 Leukemia (intraperitoneal) in CD2F1 (CDF1) mice
Conditions: endpoint: median survival time, higher = longer survival
Outline: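 Mice carrying the transplanted tumor received test compound or vehicle. Survival was recorded in each group, and the value is the treated-group measurement divided by that of the vehicle-treated control group.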

[1] = dose: 12.5 mg/kg/injection, schedule: Q01DX009 (ip), vehicle: saline
[2] = dose: 25.0 mg/kg/injection, schedule: Q01DX009 (ip), vehicle: saline
[3] = dose: 50.0 mg/kg/injection, schedule: Q01DX009 (ip), vehicle: saline
[4] = dose: 100.0 mg/kg/injection, schedule: Q01DX009 (ip), vehicle: saline
[5] = dose: 12.5 mg/kg/injection, schedule: Q01DX005 (ip), vehicle: Klucel (hydroxypropylcellulose) (HPC)
[6] = dose: 25.0 mg/kg/injection, schedule: Q01DX005 (ip), vehicle: Klucel (hydroxypropylcellulose) (HPC)
[7] = dose: 50.0 mg/kg/injection, schedule: Q01DX005 (ip), vehicle: Klucel (hydroxypropylcellulose) (HPC)
[8] = dose: 50.0 mg/kg/injection, schedule: Q01DX009 (ip), vehicle: saline with Tween-80
[9] = dose: 100.0 mg/kg/injection, schedule: Q01DX009 (ip), vehicle: saline with Tween-80
[10] = dose: 12.5 mg/kg/injection, schedule: Q01DX005 (ip), vehicle: saline with Tween-80
[11] = dose: 25.0 mg/kg/injection, schedule: Q01DX005 (ip), vehicle: saline with Tween-80
[12] = dose: 50.0 mg/kg/injection, schedule: Q01DX005 (ip), vehicle: saline with Tween-80

Measured: T/C

O=C(O)c1cn2cccnc2n1
inactive: dose: 100.0 mg/kg/injection, schedule: Q01DX001 (ip), vehicle: Klucel (hydroxypropylcellulose) (HPC) 100 % of control | dose: 200.0 mg/kg/injection, schedule: Q01DX001 (ip), vehicle: Klucel (hydroxypropylcellulose) (HPC) 98 % of control | dose: 400.0 mg/kg/injection, schedule: Q01DX001 (ip), vehicle: Klucel (hydroxypropylcellulose) (HPC) 99 % of control

CCN=c1cc2sc3cc(NCC)c(C)cc3nc-2cc1C
inactive: [1] 97 % of control | [2] 99 % of control | [3] 101 % of control | [4] 90 % of control

COc1cc(/C(C)=N/N=C(\C)c2ccc(O)c(OC)c2)ccc1O
inactive: dose: 100.0 mg/kg/injection, schedule: Q01DX001 (ip), vehicle: saline with Tween-80 100 % of control | dose: 200.0 mg/kg/injection, schedule: Q01DX001 (ip), vehicle: saline with Tween-80 95 % of control | dose: 400.0 mg/kg/injection, schedule: Q01DX001 (ip), vehicle: saline with Tween-80 100 % of control

O=C(OCC1OC(O)(COC(=O)c2ccccc2)C(OC(=O)c2ccccc2)C1OC(=O)c1ccccc1)c1ccccc1 (stereo not drawn)
inactive: [5] 97 % of control | [6] 98 % of control | [7] 90 % of control and 92 % of control

CC1=CC(C)(O)C=C(C)C1=O
inactive: dose: 3.13 mg/kg/injection, schedule: Q01DX009 (ip), vehicle: water 105 % of control | dose: 6.25 mg/kg/injection, schedule: Q01DX009 (ip), vehicle: water 97 % of control | dose: 12.5 mg/kg/injection, schedule: Q01DX009 (ip), vehicle: water 96 % of control | dose: 25.0 mg/kg/injection, schedule: Q01DX009 (ip), vehicle: water 100 % of control | dose: 50.0 mg/kg/injection, schedule: Q01DX009 (ip), vehicle: water 99 % of control | dose: 100.0 mg/kg/injection, schedule: Q01DX009 (ip), vehicle: water 98 % of control

Cc1cc2cc3c(=O)n(C)c(=O)nc-3n(CC(O)C(O)C(O)CO)c2cc1C (stereo not drawn)
inactive: dose: 15.0 mg/kg/injection, schedule: Q01DX009 (ip), vehicle: saline with Tween-80 98 % of control | dose: 30.0 mg/kg/injection, schedule: Q01DX009 (ip), vehicle: saline with Tween-80 98 % of control | dose: 60.0 mg/kg/injection, schedule: Q01DX009 (ip), vehicle: saline with Tween-80 113 % of control

CC(=O)OC1CCC2C3CCC4=C(C(=O)C=CC4(C)O)C3CCC12C (stereo not drawn)
inactive: dose: 4.0 mg/kg/injection, schedule: Q01DX009 (ip), vehicle: Klucel (hydroxypropylcellulose) (HPC) 93 % of control | dose: 8.0 mg/kg/injection, schedule: Q01DX009 (ip), vehicle: Klucel (hydroxypropylcellulose) (HPC) 90 % of control | dose: 16.0 mg/kg/injection, schedule: Q01DX009 (ip), vehicle: Klucel (hydroxypropylcellulose) (HPC) 101 % of control | dose: 32.0 mg/kg/injection, schedule: Q01DX009 (ip), vehicle: Klucel (hydroxypropylcellulose) (HPC) 88 % of control | dose: 64.0 mg/kg/injection, schedule: Q01DX009 (ip), vehicle: Klucel (hydroxypropylcellulose) (HPC) 108 % of control

CCN(CC)CCN1C(=O)CN=C(c2ccccn2)c2cc(Cl)ccc21
inactive: [8] 100 % of control | [9] 95 % of control | dose: 200.0 mg/kg/injection, schedule: Q01DX009 (ip), vehicle: saline with Tween-80 100 % of control

CC(=O)OCC#CCN1CCC(C)CC1
inactive: dose: 50.0 mg/kg/injection, schedule: Q01DX005 (ip), vehicle: saline 97 % of control | dose: 100.0 mg/kg/injection, schedule: Q01DX005 (ip), vehicle: saline 95 % of control | dose: 200.0 mg/kg/injection, schedule: Q01DX005 (ip), vehicle: saline 102 % of control

NC(=O)c1c(N)ncnc1N
inactive: dose: 12.5 mg/kg/injection, schedule: Q04DX002 (ip), vehicle: saline with Tween-80 102 % of control | dose: 25.0 mg/kg/injection, schedule: Q04DX002 (ip), vehicle: saline with Tween-80 104 % of control | dose: 50.0 mg/kg/injection, schedule: Q04DX002 (ip), vehicle: saline with Tween-80 101 % of control

O=C1CN(Cc2ccccc2)CC(=O)N2Cc3ccccc3CN12
inactive: [10] 98 % of control | [11] 105 % of control | [12] 102 % of control

Nc1cnc2ccccn12
inactive: [8] 97 % of control | [9] 102 % of control

COC(=O)N1C=Cc2ccccc2C1(C#N)C(=S)SC (stereo not drawn)
inactive: [12] 102 % of control | dose: 100.0 mg/kg/injection, schedule: Q01DX005 (ip), vehicle: saline with Tween-80 93 % of control | dose: 200.0 mg/kg/injection, schedule: Q01DX005 (ip), vehicle: saline with Tween-80 91 % of control

CC(C)CC1N=C(NN=C(CCl)CCl)SP1(=O)NNc1ncccn1 (stereo not drawn)
inactive: dose: 60.0 mg/kg/injection, schedule: Q01DX005 (ip), vehicle: Klucel (hydroxypropylcellulose) (HPC) 100 % of control | dose: 120.0 mg/kg/injection, schedule: Q01DX005 (ip), vehicle: Klucel (hydroxypropylcellulose) (HPC) 100 % of control | dose: 240.0 mg/kg/injection, schedule: Q01DX005 (ip), vehicle: Klucel (hydroxypropylcellulose) (HPC) 113 % of control

O=C(S[Si](c1ccccc1)(c1ccccc1)c1ccccc1)c1ccccc1
inactive: [3] 102 % of control | [4] 110 % of control

C1=CC2C=CC1C2c1ccccc1 (stereo not drawn)
inactive: [3] 108 % of control and 86 % of control | [4] 105 % of control and 111 % of control | dose: 200.0 mg/kg/injection, schedule: Q01DX009 (ip), vehicle: saline 116 % of control and 98 % of control

OC1(c2ccccc2)c2ccccc2-c2ccccc21
inactive: dose: 100.0 mg/kg/injection, schedule: Q04DX003 (ip), vehicle: saline with Tween-80 109 % of control | dose: 200.0 mg/kg/injection, schedule: Q04DX003 (ip), vehicle: saline with Tween-80 109 % of control | dose: 400.0 mg/kg/injection, schedule: Q04DX003 (ip), vehicle: saline with Tween-80 104 % of control

OC/C(Cl)=C(\Cl)CO
inactive: dose: 6.25 mg/kg/injection, schedule: Q01DX009 (ip), vehicle: saline 110 % of control | [1] 95 % of control | [2] 100 % of control

CC(=O)c1ccc[n+](Cc2ccc([N+](=O)[O-])cc2)c1
inactive: dose: 25.0 mg/kg/injection, schedule: Q01DX009 (ip), vehicle: saline with Tween-80 95 % of control | [8] 100 % of control | [9] 90 % of control

ClC(Cl)(Cl)C1[O][Sb]([c]2ccccc2)([c]2ccccc2)([c]2ccccc2)[O]1 (stereo not drawn)
inactive: dose: 50.0 mg/kg/injection, schedule: Q01DX009 (ip), vehicle: Klucel (hydroxypropylcellulose) (HPC) 90 % of control | dose: 100.0 mg/kg/injection, schedule: Q01DX009 (ip), vehicle: Klucel (hydroxypropylcellulose) (HPC) 101 % of control

CC(NNC(=S)N1CC2CCC(CC2)C1)c1nccc2ccccc12 (stereo not drawn)
inactive: [10] 110 % of control | [11] 103 % of control | [12] 119 % of control

O=P(O)(O)SP(=O)(O)O.[Ni]
inactive: dose: 12.5 mg/kg/injection, schedule: Q01DX001 (ip), vehicle: suspension in saline 102 % of control and 94 % of control | dose: 25.0 mg/kg/injection, schedule: Q01DX001 (ip), vehicle: suspension in saline 99 % of control and 94 % of control | dose: 50.0 mg/kg/injection, schedule: Q01DX001 (ip), vehicle: suspension in saline 122 % of control

NC(=S)c1cccc(/C=N/Nc2ccccn2)c1
inactive: dose: 100.0 mg/kg/injection, schedule: Q01DX001 (ip), vehicle: saline 96 % of control | dose: 200.0 mg/kg/injection, schedule: Q01DX001 (ip), vehicle: saline 94 % of control | dose: 400.0 mg/kg/injection, schedule: Q01DX001 (ip), vehicle: saline 96 % of control

COc1ccc2c(C)cc(N/N=C(\C)c3ccccn3)nc2c1
inactive: dose: 3.12 mg/kg/injection, schedule: Q01DX005 (ip), vehicle: Klucel (hydroxypropylcellulose) (HPC) 100 % of control | dose: 6.25 mg/kg/injection, schedule: Q01DX005 (ip), vehicle: Klucel (hydroxypropylcellulose) (HPC) 98 % of control | [5] 90 % of control and 97 % of control | [6] 95 % of control | [7] 98 % of control and 97 % of control

COc1cc(C(C)c2cc3c(cc2OCC(C)=O)OCO3)cc(OC)c1OC (stereo not drawn)
inactive: dose: 60.0 mg/kg/injection, schedule: Q01DX005 (ip), vehicle: saline with Tween-80 105 % of control | dose: 120.0 mg/kg/injection, schedule: Q01DX005 (ip), vehicle: saline with Tween-80 97 % of control | dose: 240.0 mg/kg/injection, schedule: Q01DX005 (ip), vehicle: saline with Tween-80 106 % of control

COCC#CCN(C)C
inactive: dose: 60.0 mg/kg/injection, schedule: Q01DX005 (ip), vehicle: saline 95 % of control | dose: 120.0 mg/kg/injection, schedule: Q01DX005 (ip), vehicle: saline 99 % of control | dose: 240.0 mg/kg/injection, schedule: Q01DX005 (ip), vehicle: saline 95 % of control
